# From patent US20230104503A1, “SMALL MOLECULE COMPOUNDS” (THE REGENTS OF THE UNIVERSITY OF CALIFORNIA, priority 2021, published 2023)
# Tests used:
# [1] = humans; cited from earlier work
# naïve CD4+ mouse T cells = assay: FACS of stimulated naïve CD4+ mouse T-cells for CD4+CD25+FOXP3+; conditions: 1 uM
# mTOR = assay: Phospho-flow (FACS) of phospho-p70S6K / p-S6 in activated mouse T-cells; assay type: cell-based
# Experimental: Whole splenocyte from OT1 B6 mice was extracted. […] Cells were activated with compounds for 30 mins, 1 hour, 2 hours, and overnight. For each time point, p-S6, a downstream of mTORC1 pathway, was gated on low and high based on the DMSO and no stimulation control.
# conventional T cells = assay: Treg assays for RAP35: culture of conventional T cells; assay type: cell-based
# Treg cells = assay: Treg assays for RAP35: Treg cells with expander beads; assay type: cell-based; conditions: 100 nM
# [2] = Stability during semi-preparative HPLC; assay type: physicochemical; conditions: 65% acetonitrile with 35% water, 50° C.
# Experimental: The crude was then dissolved in acetonitrile, and the resulting solution was subjected to semi-preparation using an Agilent Zorbax column (SB-C18, 5 μm, 9.4×250 mm, Agilent Technologies Inc., CA) heated to 50° C. by isocratic elution of 65% acetonitrile with 35% water at a flow rate of 3.5 mL/min. The absorbance at 278 nm wavelength was monitored.
# [3] = system: CD8 cells isolated from p14 transgenic mice; assay: CD8 CTV-labelled proliferation assay; assay type: cell-based, mouse; conditions: activated for 72 hours; relative to RAP35 and rapamycin
# Experimental: The five analogs and rapamycin were assayed for their effect on proliferation and correlation to p70S6K inhibitory activity. […] The proliferation was measured by FACS. The five analogs were tested at varying concentrations (10 nM, 100 nM, and 100 μM), activated for 72 hours with rapamycin and DMSO treated controls.
# CD8 cells were isolated from p14 transgenic mice, then labelled with CTV. The labelled cells then were activated with plate-bound anti-CD3 (5 μg/mL) and soluble anti-CD28 (2 μg/mL), along with rapamycin, rapamycin analog, or DMSO. After activation of 48 hours and 72 hours, the cells were collected to assay the CVT labelling signal using flow cytometry. All rapamycin analogs decrease proliferation in CD8 cells, with varying potency (FIG. 12).
# naïve CD4+ mouse T-cells = assay: FACS for expansion of CD62L+ memory T-cells; assay type: cell-based
# Experimental: RAP23 was further evaluated by treating naïve CD4+ T-cells at multiple concentrations (1 nM to 1 uM) for expansion of CD62L+ memory T-cells. […] These 5 compounds were identified to have reduced immunosuppression (with improved safety) with maximum and durable expansion of memory T-cells.
compound,measurement,setting,value
"CO[C@H]1C[C@@H]2CC[C@@H](C)[C@@](O)(O2)C(=O)C(=O)N2CCCC[C@H]2C(=O)O[C@H]([C@H](C)C[C@@H]2CC[C@@H](O)[C@H](OC)C2)CC(=O)[C@H](C)/C=C(\C)[C@@H](O)[C@@H](OC)C(=O)[C@H](C)C[C@H](C)/C=C/C=C/C=C/1C [rapamycin, reference compound]",terminal half-life,[1],24 to 48 h
same,FOXP3+ count,naïve CD4+ mouse T cells,53.3
"CO[C@H]1C[C@@H]2CC[C@@H](C)[C@@](O)(O2)C(=O)C(=O)N2CCCC[C@H]2C(=O)O[C@H](CC[C@@H]2CC[C@@H](O)[C@H](OC)C2)CC(=O)[C@H](C)/C=C(\C)[C@@H](O)[C@@H](OC)C(=O)[C@H](C)C[C@H](C)/C=C/C=C/C=C/1C [RAP35, (3R,6R,7E,9R,10R,12R,14S,15E,17E,19E,21S,23S,26R,27R,34aS)-9,27-dihydroxy-3-(2-((1S,3R,4R)-4-hydroxy-3-methoxycyclohexyl)ethyl)-10,21-dimethoxy-6,8,12,14,20,26-hexamethyl-9,10,12,13,14,21,22,23,24,25,26,27,32,33,34,34a-hexadecahydro-3H-23,27-epoxypyrido[2,1-c][1]oxa[4]azacyclohentriacontine-1,5,11,28,29(4H,6H,31H)-pentaone]",p70S6 high cells,"mTOR; following overnight stimulation, therapeutic concentrations (1-200 nM)",significantly reduced
same,anti-inflammatory effects (Cell Proliferation Dye and phenotypic markers),conventional T cells; 100 nM,promising anti-inflammatory effects
same,CCR7 expression,"conventional T cells; 100 nM, conventional T cells",increased
same,CD45RO expression,"conventional T cells; 100 nM, conventional T cells",decreased
same,mitochondrial membrane potential (MitoProbe),conventional T cells; compared to stimulated CD3 T cells,reduced
same,frequency of Treg cells,Treg cells,reduce
same,expression of CCR7,Treg cells; Treg cells,reduce
same,expression of CD45RO,Treg cells; Treg cells,reduce
same,expression of CXCR3,Treg cells; Treg cells,reduce
same,phosphorylation of 4EBP1,Treg cells; Treg cells,reduce
same,phosphorylation of S6,Treg cells; Treg cells,reduce
same,FOXP3+ count,naïve CD4+ mouse T cells,45.8
"CO[C@H]1C[C@@H]2CC[C@@H](C)[C@@](O)(O2)C(=O)C(=O)N2CCCC[C@H]2C(=O)O[C@H](CC[C@@H]2CC[C@@H](O)[C@H](OC)C2)CC(=O)[C@H](C)/C=C(\C)[C@@H](O)CC(=O)[C@H](C)C[C@H](C)/C=C/C=C/C=C/1C [RAP35/27A, (3R,6R,7E,9S,12R,14S,15E,17E,19E,21S,23S,26R,27R,34aS)-9,27-dihydroxy-3-(2-((1S,3R,4R)-4-hydroxy-3-methoxycyclohexyl)ethyl)-21-methoxy-6,8,12,14,20,26-hexamethyl-9,10,12,13,14,21,22,23,24,25,26,27,32,33,34,34a-hexadecahydro-3H-23,27-epoxypyrido[2,1-c][1]oxa[4]azacyclohentriacontine-1,5,11,28,29(4H,6H,31H)-pentaone]",stability in the process of semi-preparation,[2],tended to be unstable
"CO[C@H]1C[C@@H]2CC[C@@H](C)[C@@](O)(O2)C(=O)C(=O)N2CCCC[C@H]2C(=O)O[C@H]([C@H](C)C[C@@H]2CC[C@@H](O)[C@H](OC)C2)CC(=O)[C@H](C)/C=C(\C)[C@@H](O)[C@@H](OC)C(=O)[C@H](C)CC/C=C/C=C/C=C/1C [RAP23, (3S,6R,7E,9R,10R,12R,15E,17E,19E,21S,23S,26R,27R,34aS)-9,27-dihydroxy-3-((R)-1-((1S,3R,4R)-4-hydroxy-3-methoxycyclohexyl)propan-2-yl)-10,21-dimethoxy-6,8,12,20,26-pentamethyl-9,10,12,13,14,21,22,23,24,25,26,27,32,33,34,34a-hexadecahydro-3H-23,27-epoxypyrido[2,1-c][1]oxa[4]azacyclohentriacontine-1,5,11,28,29(4H,6H,31H)-pentaone]",inhibition of the p70S6 high signal,mTOR; even at 1 uM,never fully inhibited
same,proliferation of CTV-labelled CD8 cells,[3],increased proliferation
same,portion of cells possessing a phospho-p70S6K high/CD62L+high phenotype,naïve CD4+ mouse T-cells; 1 nM to 1 uM,7-10%
same,generation of memory versus inhibition of proliferation,naïve CD4+ mouse T-cells; overall assessment,promote potent generation of memory without potently inhibiting proliferation
same,phospho-p70S6K low/CD62L+high phenotype,naïve CD4+ mouse T-cells; relative to all doses of rapamycin (including 1 nM),reduced
